Assay results: patent publication US8227506B2, “Benzamidine compound” (Ajinomoto., Inc., priority 2005, dated 2012)

Legend:
[1] = Evaluation of stability in plasma; type: in vitro ADME; conditions: disappearance half-life in human plasma, 37° C., final drug concentration 10 μM, HPLC
Experimental: Evaluation of Stability in Plasma
A […] solution (5 μl) of the test compound was added to human plasma (495 μl) (final drug concentration, 10 μM), and the mixture was incubated at 37° C. Samples (each 50 μl) were taken at 0 minutes, 3 minutes, 10 minutes, and 20 minutes after addition of the drug solution, diluted with distilled water (50 μl), and the reaction was quenched by adding 100% acetonitrile (300 μl) and blending them. After deproteinization by centrifugation at 15000 rpm for 5 minutes, the mixture was concentrated to dryness by a centrifugal evaporator. The sample was dissolved in 120 μl of 0.1% aqueous TFA, the peak area or height of the test compound was calculated by HPLC, and the disappearance half-life was determined.

[2] = target: activated factor IIa (thrombin) (Homo sapiens, UniProt P00734); assay: Determination of activated factor II (FIIa, thrombin)-inhibitory activity (chromogenic substrate S-2238); type: biochemical; conditions: negative logarithm of the concentration suppressing 50% of the reaction rate of the control, 0.125 U/ml thrombin
Experimental: Determination of Activated Factor II (FIIa, Thrombin)-Inhibitory Activity
(§1) Using a 96 well plate (#3396, Costar), 0.125 U/ml activated factor IIa (thrombin) (10 μL) and a test compound (10 μL) were blended with 100 mM Tris-HCl buffer (130 μL) containing 0.02% Tween 20, 0.1% PEG6000 and 0.2 M NaCl for 10 minutes, and a substrate for color development (0.1 mM S-2238 50 μL) was added thereto. Using a Microplate reader Benchmark Plus (BIO-RAD), the reaction rate was measured from the time course changes at absorbance 405 nm. The reaction rate of the control was taken as 100% and the negative logarithm of the concentration capable of suppressing 50% of the reaction rate of the control was taken as the pIC50 value.

FXa = FXa (Homo sapiens, UniProt P00742); assay: Determination of activated factor X activity-inhibitory activity (chromogenic substrate S-2222); type: biochemical; conditions: negative logarithm of the concentration suppressing 50% of the reaction rate of the control, 0.015 U/ml FXa
Experimental: Determination of Activated Factor X Activity-Inhibitory Activity
as §1, with “0.015” for “0.125”, “FXa” for “activated factor IIa (thrombin)”, “(0.2” for “(0.1”, “S-2222” for “S-2238”

human plasma = assay: Determination of anticoagulant activity (aPTT measurement method); conditions: negative logarithm of the concentration prolonging the aPTT of the control to two-fold
Experimental: Determination of Anticoagulant Activity
The aPTT measurement method using an automatic blood coagulation time measuring device, Sysmex CA-3000 (TOA Medical Electronics Co., Ltd.) was performed. A solution (5 μl) of the test compound was placed in a sample tube (SU-40, TOA Medical Electronics Co., Ltd.), human plasma (hemolyance coagulation control I, iatron Laboratory, 45 μl) was added and the mixture was incubated at 37° C. for 3 minutes. To the plasma solution were added dataphay•APTT (rabbit brain-derived cephalin, DADE Behring Co., Ltd., 50 μl) and 0.02 M calcium chloride (50 μl), and the time up to the coagulation of plasma was automatically measured. The anticoagulation activity is shown as the negative logarithm of the concentration prolonging the aPTT of the control to two-fold (paPTT2).

dog dialysis model = assay: Evaluation of dog dialysis model; type: in vivo, dog (Beagles)
Experimental: Evaluation of Dog Dialysis Model
Beagles (♂, 11 kg-15 kg, Nosan Corp., Japan) were anesthetized with pentobarbital (30 mg/kg, Tokyo Chemical Industry Co., Ltd.) by intravenous administration from the cephalic vein of the forefoot. A tracheostomy tube was inserted and artificial breathing was started. Placing needles [14G (serflow placing needle, Termo Corp.), 16G (happycath, Medikit Co., Led), 18G (serflow placing needle, Termo Corp.)] were punctured into the left femoral vein, right femoral artery, and right cephalic vein of the forefoot, respectively, and an outer shunt (Senko Medical Instrument Mfg. CO., Ltd.) filled with saline was set to the femoral vein and artery. For hemodialysis, a hemodialysis device for one person (DBG-01, Nikkiso Co., Ltd.), a hollow fiber dialyzer (FB-50, triacetate (CTA) film, Nipro Corp.) and sodium bicarbonate dialysate (AK-sorita•DL, Shimizu Corp.) were used.
The experiment was performed under the conditions of blood flow 80 ml/minute, dialysate flow 300 ml/minute, water removal amount 0 ml/minute. During dialysis, pentobarbital (12 mg/kg/hour) was continuously administered from the cephalic vein of the forefoot to maintain anesthesia. The control and test compounds were continuously administered into the arterial blood circuit (B) at 5 ml/hour. […]

FXa, sequence (P00742 235-488 limits assumed): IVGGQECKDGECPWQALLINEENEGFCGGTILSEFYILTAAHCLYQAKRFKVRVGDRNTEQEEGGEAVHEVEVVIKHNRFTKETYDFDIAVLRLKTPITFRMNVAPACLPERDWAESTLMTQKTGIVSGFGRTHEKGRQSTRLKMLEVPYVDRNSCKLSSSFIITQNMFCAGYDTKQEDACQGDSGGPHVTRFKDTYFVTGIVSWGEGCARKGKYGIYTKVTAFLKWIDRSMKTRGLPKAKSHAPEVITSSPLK
FXa, sequence (P00742 41-179 partner limits assumed): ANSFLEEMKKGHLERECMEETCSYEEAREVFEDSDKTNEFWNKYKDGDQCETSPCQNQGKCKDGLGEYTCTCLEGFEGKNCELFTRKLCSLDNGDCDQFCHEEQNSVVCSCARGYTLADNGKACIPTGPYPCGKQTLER

Row | half-life at 10 μM [1] [min] | IC50 [2] [nM] | IC50 (FXa) [nM] | bleeding time (dog dialysis model; Template method, 2 hour after the start of the administration, versus control (FIG. 2)) | SMILES | paPTT2 (human plasma) | dialysis time (dog dialysis model; up to arterial circuit pressure 300 mmHg or 4 hours after the start of the dialysis (FIG. 1)) [h]
1 | 1.1 | > 100000 | 251 | – | COc1ccc(C(=N)N)cc1OCCOC(=O)c1ccc(C(=N)N2CCCC2)cc1 [Ex. 18, 2-{5-amidino-2-methoxyphenoxy}ethyl 4-[imino(pyrrolidin-1-yl)methyl]benzoate ditrifluoroacetate] | 5.2 | –
2 | 2.1 | 6310 | 12.6 | of the same level as the control | N#CCOc1ccc(C(=N)N)cc1OCCOC(=O)c1ccc(C(=N)N2CCCC2)cc1 [Ex. 20, 2-[5-amidino-2-(cyanomethoxy)phenoxy]ethyl 4-[imino(pyrrolidin-1-yl)methyl]benzoate ditrifluoroacetate] | – | 4
3 | 1.6 | 79400 | 3.16 | – | N=C(N)c1ccc(O)c(OCCOC(=O)c2ccc(C(=N)N3CCCC3)cc2)c1 [Ex. 6, 2-{5-amidino-2-hydroxyphenoxy}ethyl 4-[imino(pyrrolidin-1-yl)methyl]benzoate ditrifluoroacetate] | 6 | –
4 | 2.7 | 63100 | 15.8 | – | N=C(N)c1ccc(OCCO)c(OCCOC(=O)c2ccc(C(=N)N3CCCC3)cc2)c1 [Ex. 13, 2-[5-amidino-2-(2-hydroxyethoxy)phenoxy]ethyl 4-[imino(pyrrolidin-1-yl)methyl]benzoate ditrifluoroacetate] | 6.4 | –

The remaining lines, values behind:

Row | SMILES | half-life at 10 μM [1] [min] | IC50 [2] [nM] | IC50 (FXa) [nM] | bleeding time (dog dialysis model; Template method, 2 hour after the start of the administration, versus control (FIG. 2)) | paPTT2 (human plasma) | dialysis time (dog dialysis model; up to arterial circuit pressure 300 mmHg or 4 hours after the start of the dialysis (FIG. 1)) [h]
5 | CC(C)COc1ccc(C(=N)N)cc1OCCOC(=O)c1ccc(C(=N)N2CCCC2)cc1 [Ex. 24, 2-{5-amidino-2-isobutoxyphenoxy}ethyl 4-[imino(pyrrolidin-1-yl)methyl]benzoate ditrifluoroacetate] | 0.7 | 12600 | 39.8 | – | – | –
6 | N=C(N)c1cccc(OCCOC(=O)c2ccc(C(=N)N3CCCC3)nc2)c1 [Ex. 37, 2-(3-amidinophenoxy)ethyl 6-[imino(pyrrolidin-1-yl)methyl]nicotinate tritrifluoroacetate] | – | > 100000 | 200 | – | 5.2 | –
7 | N=C(N)c1cccc(OCCOC(=O)c2ccc(OC3CCN(C(=N)N)CC3)cc2)c1 [Ex. 17, 2-{3-amidinophenoxy}ethyl 4-({1-amidinopiperidin-4-yl}oxy)benzoate ditrifluoroacetate] | 5.6 | > 100000 | 63.1 | – | – | –
8 | CC(=N)N1CCC(Oc2ccc(C(=O)OCCOc3cccc(C(=N)N)c3)cc2)CC1 [Ex. 16, 2-{3-amidinophenoxy}ethyl 4-[(1-(1-iminoethyl)piperidin-4-yl)oxy]benzoate ditrifluoroacetate] | 1.7 | > 100000 | 63.1 | – | 5.4 | –
9 | CC(=O)Oc1ccc(C(=N)N)cc1OCCOC(=O)c1ccc(C(=N)N2CCCC2)cc1 [Ex. 28, 2-{2-(acetoxy)-5-amidinophenoxy}ethyl 4-[imino(pyrrolidin-1-yl)methyl]benzoate ditrifluoroacetate] | 3.5 | 1580 | 3.98 | – | – | –
